Test results reported in patent US6620403B2, “In vivo chemosensitivity screen for human tumors” (priority 2000, dated 2003).
Where “and” joins values, the source holds several entries; their conditions need not be identical. Equal entries are not always repeated.

What was measured:
[1] = tested on: human NSCLC heterotransplants; assay: Paclitaxel treatment and tumor response of human NSCLC heterotransplants grown subcutaneously in nude mice; format: in vivo
Description: The in vivo sensitivity to paclitaxel was studied in 34 successfully grown heterotransplants. The paclitaxel was intravenously administered to each mouse at a dosage rate of 60 mg/kg every 3 weeks. Treatment was initiated when the tumors reached a size of about 5 mm in diameter and strict standard clinical criteria (>50% tumor shrinkage) were used to define the tumor response. The heterotransplants were morphologically very similar to the original tumors. The response rate to paclitaxel was 21% (95% Cl 9-38%) which is equivalent to that reported in Phase II studies in patients with advanced NSCLC treated with paclitaxel alone. Tumor heterotransplants are thus proposed as relevant models to evaluate new potential anti-tumor agents for treatment of different cancers and to predict clinical response in individual patients. It is noted that the type of tumor utilized for evaluating chemosensitivity to anti-tumor agents comprises a range of cancers including, but not limited to, colon, head and neck, brain, melanoma, sarcoma, breast, ovarian, prostate, kidney and stomach cancers.
The fresh tumor samples were cut into 2-3 mm^3 pieces in sterile saline. Three or four pieces of non-necrotic tissue were injected subcutaneously into the lower back and anterior chest of 6 to 8 week old female Nu/Nu mice using a biomedical stainless steel implant needle and maintained under standardized conventional conditions. Animals transplanted with NSCLC tumors were checked for tumor growth over a 36 week period. Tumor formation measuring at least 5 mm in diameter was considered a positive take. Tumor formation was confirmed histologically in all cases. Temporary growth was defined as tumor formation followed by spontaneous regression before reaching a diameter of 5 mm. All other incidences were considered no growth.
The therapeutic experiments were designed as a standard Phase II clinical study with a target response rate of 20%, the only difference being that the tumor response was assessed as the average of two animals rather than in a single subject as in the case of a human Phase II trial.
The tumor grown after implantation from human to mouse was resected and cut into pieces following the same procedure used for the original tumor sample as previously described above, and transplanted subcutaneously into several animals. Tumors from the first mouse to mouse passage were allowed to grow until reaching 5 mm in diameter, at which time the animals were split into two groups: 1) control group—no treatment; and 2) treated group. The treated group was administered 60 mg/kg paclitaxel intravenously as a bolus in the tail vein. Tumor measurements were performed twice a week and the tumor volume was calculated using the formula, a×b^2/2 (a=longest diameter and b=shortest diameter). Partial tumor response was defined as an average reduction in the tumor volume of at least 50% in the animals of the treated group compared to the tumor volume measured in animals of the control group. Complete tumor response was defined as complete disappearance of the palpable tumor in both animals of the […].

[2] = tested on: human NSCLC heterotransplants; assay: as above; format: in vivo; remark: listed apart in the source
NSCLC = conditions: single agent, cited from earlier work
[3] = First mouse to mouse passage, after second dose (day 21), 16 heterotransplants, number of responses (%)

## CC(=O)O[C@H]1C(=O)[C@@]2(C)[C@H]([C@H](OC(=O)c3ccccc3)[C@]3(O)C[C@H](OC(=O)[C@H](O)[C@@H](NC(=O)c4ccccc4)c4ccccc4)C(C)=C1C3(C)C)[C@]1(OC(C)=O)CO[C@@H]1C[C@@H]2O [paclitaxel]
[1]; 12 heterotransplants that did not respond with one dose
  non-responders to one dose achieving a partial response after the second dose: None
[1]; 16 heterotransplants given two doses, 4/16, 95% CI 7%-52%
  partial responses after one dose: 25%
[1]; 16 heterotransplants, second dose on day 21, number out of 4 partial responses
  partial responses converted into complete response after two doses: Three
[1]; 16 heterotransplants, second dose on day 21 versus single dose
  effect of second dose on overall response rate: did not change the overall response rate
[1]; 21 heterotransplants, first mouse to mouse passage, 95% CI 8%-47%
  response rate: 24%
[1]; 34 heterotransplants, first mouse to mouse passage, one single dose 60 mg/kg i.v., 95% CI 9-38%
  overall response rate: 21%
[1]; Adenocarcinoma, first mouse to mouse passage, 11 heterotransplants, single dose 60 mg/kg i.v.
  Tumor Response/(%) Complete: 0
[1]; Adenocarcinoma, first mouse to mouse passage, 11 heterotransplants, single dose 60 mg/kg i.v., number of responses (%)
  Tumor Response/(%) Partial: 1 (9%)
[1]; First mouse to mouse passage, after first dose, 16 heterotransplants
  Tumor Response/(%) Complete: 0
[1]; First mouse to mouse passage, after first dose, 16 heterotransplants, number of responses (%)
  Tumor Response/(%) Partial: 4 (24%)
[1]; [3]
  Tumor Response/(%) Complete: 3 (18%)
  Tumor Response/(%) Partial: 1 (6%)
[1]; First passage, 21 heterotransplants tested on both first and second mouse to mouse passages
  Tumor Response/(%) Complete: 0
[1]; First passage, 21 heterotransplants tested on both first and second mouse to mouse passages, number of responses (%)
  Tumor Response/(%) Partial: 5 (24%)
[1]; Neuroendocrine carcinoma, first mouse to mouse passage, 1 heterotransplant, single dose 60 mg/kg i.v., number of responses
  Tumor Response/(%) Partial: 1
[1]; Second passage, 21 heterotransplants tested on both first and second mouse to mouse passages
  Tumor Response/(%) Complete: 0
[1]; Squamous carcinoma, first mouse to mouse passage, 20 heterotransplants, single dose 60 mg/kg i.v.
  Tumor Response/(%) Complete: 0
[1]; Squamous carcinoma, first mouse to mouse passage, 20 heterotransplants, single dose 60 mg/kg i.v., number of responses (%)
  Tumor Response/(%) Partial: 4 (20%)
[1]; TOTAL, first mouse to mouse passage, 34 heterotransplants, single dose 60 mg/kg i.v., number of responses (%)
  Tumor Response/(%) Complete: 0 (0%)
[1]; TOTAL, first mouse to mouse passage, 34 heterotransplants, single dose 60 mg/kg i.v., number of responses (%), 60 mg/kg
  Tumor Response/(%) Partial: 7
[1]; TOTAL, first mouse to mouse passage, 34 heterotransplants, single dose 60 mg/kg i.v., number of responses (%), listed as Paclitaxel, 60 mg/kg
  Tumor Response/(%) Partial: 7 (21%)
[1]; Undifferentiated carcinoma, first mouse to mouse passage, 2 heterotransplants, single dose 60 mg/kg i.v., number of responses
  Tumor Response/(%) Partial: 1
[2]; 21 heterotransplants, second mouse to mouse passage, 95% CI 11%-52%
  response rate: 29%
[2]; Second passage, 21 heterotransplants tested on both first and second mouse to mouse passages, number of responses (%)
  Tumor Response/(%) Partial: 6 (29%)
NSCLC; each of four Phase II studies, previously untreated NSCLC patients
  response rate in the individual Phase II studies: 10% and 21% and 24% and 38%
NSCLC; four Phase II studies, total of 160 previously untreated NSCLC patients
  reported overall response rate: 24%
